# Source: US9181172B2, “Rhein conjugates, preparation method thereof and their uses in producing medicines for treating diabetic nephrosis, intestinal adhesion and osteoarthritis” (priority 2005, dated 2015)
# Counter-ions that a name gives are not always drawn.
# Key:
# Assay type in all cases: in vivo
# [1] = tested on: rabbits' ear marginal veins; experiment: Safety of hydro-acupuncture injection: irritation of rabbits' ear marginal vein; details: rabbit, in vivo
# Description: In rabbits' ear marginal vein aseptic operation, rhein sodium salt, rhein arginine conjugates and 0.9% sodium chloride injection liquid were slowly filled into the veins respectively every two days for three consecutive times.
# [2] = tested on: diabetic rats; experiment: Diabetic nephrosis of obese diabetic rats (high-fat high-sugar diet plus STZ); details: six months, ig 65 mg/kg
# Experimental: Animal model of diabetic rats: after one month of high-fat high-sugar diet, the rats (about 180 g) were injected by sub-pathogenic dose (25 mg/kg) of streptozotocin (STZ) to induce the occurrence of diabetes. The model has the characteristics of moderate hyperglycemia, hyperlipidemia and insulin resistance as well as pathological changes of typical diabetic nephrosis.
# • 1. Conventional feedstuff control group: distilled water. • 2. Diabetes model group: distilled water. • 3. Rhein lysine diabetes treatment group: a month after STZ injection, rhein lysine complex [prepared with distilled water, intragastric infusion for rats according to 90 mg/kg (0.209 mmol/kg) dose] was administered referred to treatment group 1. • 4. Rhein sodium diabetes treatment group: a month after STZ injection, rhein sodium [prepared with distilled water, intragastric infusion for rats, according to 65 mg/kg (0.212 mmol/kg) dose] was administered, referred to treatment group 2. • 5. Rhein lysine diabetes prevention group: one week after STZ injection, rhein lysine conjugates were administered [prepared with distilled water and intragastric infusion for rats, according to 90 mg/kg (0.209 mmol/kg) dose], referred to prevention group 1. • 6. Rhein sodium diabetes prevention group: one week after STZ injection, rhein sodium were administered [prepared with distilled water and intragastric infusion for rats, according to 65 mg/kg (0.212 mmol/kg ) dose], referred to prevention group 2.
# [3] = tested on: obese hyperglycemia mice; experiment: Body weight and blood glucose of obese hyperglycemia mice
# Experimental: 9-week-old obese mice of hyperglycemia were randomly divided into: rhein sodium group, non-treatment group, rosiglitazone group, rhein lysine high-dose group and low-dose group, each group has 6 mice. Kunming mice of the same age were used as the control group, which were fed by conventional feedstuff with free food and water feeding. Rhein lysine conjugates [the dose is 180 mg/kg (0.418 mmol/kg) and 90 mg/kg (0.209 mmol/kg) for intragastric infusion, prepared with distilled water], dose of the rhein sodium group is 130 mg/kg (0.424 mmol/kg), the mixture was dissolved with distilled water, intragastric administration; rosiglitazone group (the dose is 4 mg/kg), the mixture was dissolved with distilled water, intragastric administration, and the rats of the other two groups were administered with the same volume of distilled water, once a day, 12 weeks of administration in succession. The animals' body weight and blood sugar were measured regularly, and statistical analysis was conducted.
# [4] = tested on: obese rats of high-fat and high-sugar diet; experiment: Body weight of obese rats of high-fat and high-sugar diet; details: Group E
# Description: Group A: conventional diet, 4 weeks later, started to carry on intragastric administration, and the same volume of distilled water as the control, once daily, three weeks in succession.
# Group B: high-fat high-sugar diet, 4 weeks later, started to carry on intragastric administration, and the same volume of distilled water as the model control, once daily, three weeks in succession.
# Group C: high-fat high-sugar diet, 4 weeks later, started to carry on intragastric administration of rhein lysine conjugates [dose: 90 mg/kg (0.209 mmol/kg), prepared by distilled water], once daily, three weeks in succession.
# Group D: high-fat high-sugar diet, 4 weeks later, started to carry on intragastric administration of rhein lysine conjugates [dose: 45 mg/kg (0.105 mmol/kg), prepared by distilled water], once daily, three weeks in succession.
# Group E: high-fat high-sugar diet, 4 weeks later, started to carry on intragastric administration of rhein sodium [dose: 65 mg/kg (0.212 mmol/kg), prepared by distilled water], once daily, three weeks in succession.
# [5] = tested on: rats; experiment: Carrageenan-induced acute pleurisy exudation and leukoplania in rats; details: intraperitoneal 20 mg/kg, four hours after carrageenan
# Experimental: Forty male rats of 200±20 g weight were selected and divided into five groups, namely, model control group, indomethacin group, rhein sodium group, rhein glucosamine large dose group and small dose group. Eight rats for each group. The rats were administered with medicines by intraperitoneal administration, one hour later, the rats were induced with acute pleurisy by carrageenan according to the method in the literature [Xu Shuyun, Methodology in Pharmacological Experiment (the 3rd version): 916]. Four hours later, the rats were killed and the volume of pleural effusion and total white cell count were measured.
# [6] = tested on: rats; experiment: Formation of granuloma in rats (arthritis example, test 4); details: 20 mg/kg intragastric, two weeks
# Experimental: Rats were randomly divided into five groups (model control group, indomethacin group, rhein glucosamine large dose group and small dose group and rhein sodium group). Each group has 10 […]. According to the method in the literature [Xu Shuyun, Methodology in Pharmacological Experiment (the 3rd version): 918], the models were built, and the rats were administered with medicines since the day when starting operations. […] Two weeks later, the rats were killed and test was carried on according to the method in the literature. The net weight of granulation was calculated, and t test was used for the intergroup comparison.
# [7] = tested on: mice; experiment: Acetic acid-induced writhing response in mice; details: ig 40 mg/kg, 12 days
# Experimental: Fifty Kunming mice, half male and half female, weighing 18-22 g each, were selected and randomly divided into five groups, namely, model control group, aspirin group, rhein sodium group, rhein glucosamine large dose group and small dose group, 10 mice for each group. The mice were administered with medicine by intragastric administration every day, 0.2 ml/10 g body weight, once every day, and administered for 12 days in succession. After the final administration of medicines, 30 minutes later, test was carried on according to the methods in the literature [Xu Shuyun, Methodology in Pharmacological Experiment (the 1st version): 882]. The inhibiting rate for writhing response was calculated.
# [8] = baseline of group given ig 130 mg/kg once a day
compound,measurement,setting,value
"O=C(O)c1cc(O)c2c(c1)C(=O)c1cccc(O)c1C2=O [Rhein sodium salt, rhein sodium salt]",biopsy of rabbits' ear marginal vein,[1],"slight with partial endothelial cell necrosis and abscission, and inflammatory response of the surrounding tissues"
same,irritation on rabbits' ear marginal veins,[1],has irritation
same,Urine protein,[2]; preventive administration from one week after STZ,11.54 ± 2.98 mg/24 h
same,Kidney weight index (double kidney weight/body weight × 10^4),[2]; preventive administration,5.21 ± 0.68
same,Serum total cholesterol,[2]; preventive administration,2.89 ± 0.31 mM
same,Serum triacylglycerol,[2]; preventive administration,1.68 ± 0.45
same,Steady blood sugar level,[2]; preventive administration,6.7 ± 0.8 mmol/L
same,Steady insulin level,[2]; preventive administration,72.6 ± 3.6 uU/ml
same,Weight,[2]; preventive administration,243 ± 12 g
same,blood sugar,[2]; preventive administration,15.08 ± 5.7 mmol/L
same,Urine protein,[2]; treatment from a month after STZ,16.15 ± 7.71 mg/24 h
same,Kidney weight index (double kidney weight/body weight × 10^4),[2]; treatment,6.9 ± 0.83
same,Serum total cholesterol,[2]; treatment,3.71 ± 0.63 mM
same,Serum triacylglycerol,[2]; treatment,1.66 ± 0.47
same,Steady blood sugar level,[2]; treatment,5.9 ± 0.8 mmol/L
same,Steady insulin level,[2]; treatment,81 ± 4.5 uU/ml
same,Weight,[2]; treatment,229 ± 16 g
same,blood sugar,[2]; treatment,17.3 ± 3.3 mmol/L
same,Blood glucose prior to administration,[3]; [8],28.9 ± 4.8 mmol/L
same,Body weight prior to administration,[3]; [8],28.9 ± 1.8 g
same,Blood glucose 6 w after administration,[3]; ig 130 mg/kg once a day,31.2 ± 5.5 mmol/L
same,Blood glucose 9 w after administration,[3]; ig 130 mg/kg once a day,33.5 ± 5.4 mmol/L
same,Blood glucose 12 w after administration,[3]; ig 130 mg/kg once a day,30.1 ± 4.5 mmol/L
same,Body weight 6 w after administration,[3]; ig 130 mg/kg once a day,35.8 ± 1.5 g
same,Body weight 9 w after administration,[3]; ig 130 mg/kg once a day,39.5 ± 1.4 g
same,Body weight 12 w after administration,[3]; ig 130 mg/kg once a day,41.1 ± 1.5 g
same,The body weight increased 7 weeks after high-sugar high-fat diet,[4]; after three weeks ig 65 mg/kg once daily,17.1 ± 4.1 g
same,The body weight increased 4 weeks after high-sugar high-fat diet,[4]; before start of ig 65 mg/kg,15.8 ± 4.3 g
same,Volume of exudation fluid,[5],0.33 ± 0.12
same,WBC,[5],3.98 ± 1.64 ×109/L
same,Net weight of granulation,[6],15.23 ± 2.99Δ Δ mg
same,Inhibiting rate,[7],37.7%
same,Times of writhing,[7],20.1 ± 8.9 per/20 min
